Reference: patent US11083725B2 (priority 2014, dated 2021)

System: NHBE cells
Assay: Biolog metabolic array: substrate use by NHBE cells with or without CA09 infection
Format: cell-based, human
Details: for Substrate use, 590 nm absorbance normalized to zero hour, 1 hr: Biolog PMM2, 1 hr; for Substrate use, 590 nm absorbance normalized to zero hour, 5 hr: Biolog PMM2, 5 hr; for Substrate use, 590 nm absorbance normalized to zero hour, 7 hr: Biolog PMM2, 7 hr
[1] = Control (uninfected) NHBE cells
[2] = Virus (CA09-infected NHBE cells, MOI 1)
[3] = Virus: CA09-infected NHBE cells, MOI 1, Biolog PMM2
[4] = Virus (CA09-infected, MOI 1) NHBE cells
[5] = Virus (CA09, MOI 1) infected NHBE cells

| Structure (SMILES) | 590 nm absorbance normalized to zero hour (substrate use), 1 hr [1] | 590 nm absorbance normalized to zero hour (substrate use), 2 hr [1] | 590 nm absorbance normalized to zero hour (substrate use), 3 hr [1] | 590 nm absorbance normalized to zero hour (substrate use), 4 hr [1] | 590 nm absorbance normalized to zero hour (substrate use), 6 hr [1] | 590 nm absorbance normalized to zero hour (substrate use), 8 hr [1] | 590 nm absorbance normalized to zero hour (substrate use), 9 hr [1] | 590 nm absorbance normalized to zero hour (substrate use), 10 hr [1] | 590 nm absorbance normalized to zero hour (substrate use), 11 hr [1] | Substrate use, 590 nm absorbance normalized to zero hour, 1 hr [1] | Substrate use, 590 nm absorbance normalized to zero hour, 5 hr [1] | Substrate use, 590 nm absorbance normalized to zero hour, 7 hr [1] | 590 nm absorbance normalized to zero hour (substrate use), 1 hr [3] | 590 nm absorbance normalized to zero hour (substrate use), 2 hr [3] | 590 nm absorbance normalized to zero hour (substrate use), 3 hr [3] | 590 nm absorbance normalized to zero hour (substrate use), 4 hr [3] | 590 nm absorbance normalized to zero hour (substrate use), 5 hr [3] | 590 nm absorbance normalized to zero hour (substrate use), 6 hr [3] | 590 nm absorbance normalized to zero hour (substrate use), 7 hr [3] | 590 nm absorbance normalized to zero hour (substrate use), 8 hr [3] | other results |
| --- | --- | --- | --- | --- | --- | --- | --- | --- | --- | --- | --- | --- | --- | --- | --- | --- | --- | --- | --- | --- | --- |
| OC[C@H]1O[C@H](OC[C@H]2OC(O)(CO)[C@@H](O)[C@@H]2O)[C@H](O)[C@@H](O)[C@@H]1O (stereo partly shown) [Palatinose] | 1.31 | 1.79 | 1.68 | 1.81 | 2.44 | 2.16 | 2.14 | 1.94 | 1.44 | 1.31 | 2.10 | 2.18 | 0.18 | 0.24 | 0.28 | 0.29 | 0.34 | 0.36 | 0.38 | 0.41 | 590 nm absorbance normalized to zero hour (substrate use), 0 hr [1]: 1.00; Substrate use, 590 nm absorbance normalized to zero hour, 0 hr (Control (uninfected) NHBE cells, Biolog PMM2, 0 hr): 1.00; 590 nm absorbance normalized to zero hour (substrate use), 0 hr [2]: 1.00; 590 nm absorbance normalized to zero hour (substrate use), 1 hr [2]: 0.18; 590 nm absorbance normalized to zero hour (substrate use), 2 hr [2]: 0.24; 590 nm absorbance normalized to zero hour (substrate use), 3 hr [2]: 0.28; 590 nm absorbance normalized to zero hour (substrate use), 4 hr [2]: 0.29; 590 nm absorbance normalized to zero hour (substrate use), 5 hr [2]: 0.34; 590 nm absorbance normalized to zero hour (substrate use), 6 hr [2]: 0.36; 590 nm absorbance normalized to zero hour (substrate use), 7 hr [2]: 0.38; 590 nm absorbance normalized to zero hour (substrate use), 8 hr [2]: 0.41; 590 nm absorbance normalized to zero hour (substrate use), 9 hr [2]: 0.45; 590 nm absorbance normalized to zero hour (substrate use), 10 hr [2]: 0.46; 590 nm absorbance normalized to zero hour (substrate use), 11 hr [2]: 0.50; 590 nm absorbance normalized to zero hour (substrate use), 0 hr [3]: 1.00; 590 nm absorbance normalized to zero hour (substrate use), 9 hr [3]: 0.45; 590 nm absorbance normalized to zero hour (substrate use), 10 hr [3]: 0.46; 590 nm absorbance normalized to zero hour (substrate use), 11 hr [3]: 0.50 |
| CCC(=O)O [Propionic Acid] | 1.39 | 1.55 | 1.71 | 1.74 | 0.17 | 1.84 | 1.99 | 1.15 | 1.23 | 1.39 | 1.91 | 1.75 | 1.23 | 0.70 | 0.83 | 0.93 | 1.08 | 1.15 | 1.17 | 1.18 | 590 nm absorbance normalized to zero hour (substrate use), 1 hr [4]: 1.23; 590 nm absorbance normalized to zero hour (substrate use), 2 hr [4]: 0.70; 590 nm absorbance normalized to zero hour (substrate use), 3 hr [4]: 0.83; 590 nm absorbance normalized to zero hour (substrate use), 4 hr [4]: 0.93; 590 nm absorbance normalized to zero hour (substrate use), 5 hr [4]: 1.08; 590 nm absorbance normalized to zero hour (substrate use), 6 hr [4]: 1.15; 590 nm absorbance normalized to zero hour (substrate use), 7 hr [4]: 1.17; 590 nm absorbance normalized to zero hour (substrate use), 8 hr [4]: 1.18; 590 nm absorbance normalized to zero hour (substrate use), 9 hr [4]: 1.32; 590 nm absorbance normalized to zero hour (substrate use), 10 hr [4]: 1.11; 590 nm absorbance normalized to zero hour (substrate use), 11 hr [4]: 1.26; 590 nm absorbance normalized to zero hour (substrate use), 9 hr [3]: 1.32; 590 nm absorbance normalized to zero hour (substrate use), 10 hr [3]: 1.11; 590 nm absorbance normalized to zero hour (substrate use), 11 hr [3]: 1.26 |
| CC(=O)C(=O)O [Pyruvic Acid] | 1.34 | 1.40 | 1.54 | 1.61 | 1.39 | 1.57 | 1.71 | 1.81 | 2.49 | 1.34 | 1.70 | 1.52 | 1.27 | 0.82 | 0.94 | 1.20 | 1.10 | 1.09 | 1.06 | 0.67 | 590 nm absorbance normalized to zero hour (substrate use), 1 hr [4]: 1.27; 590 nm absorbance normalized to zero hour (substrate use), 2 hr [4]: 0.82; 590 nm absorbance normalized to zero hour (substrate use), 3 hr [4]: 0.94; 590 nm absorbance normalized to zero hour (substrate use), 4 hr [4]: 1.20; 590 nm absorbance normalized to zero hour (substrate use), 5 hr [4]: 1.10; 590 nm absorbance normalized to zero hour (substrate use), 6 hr [4]: 1.09; 590 nm absorbance normalized to zero hour (substrate use), 7 hr [4]: 1.06; 590 nm absorbance normalized to zero hour (substrate use), 8 hr [4]: 0.67; 590 nm absorbance normalized to zero hour (substrate use), 9 hr [4]: 0.65; 590 nm absorbance normalized to zero hour (substrate use), 10 hr [4]: 0.75; 590 nm absorbance normalized to zero hour (substrate use), 11 hr [4]: 0.61; 590 nm absorbance normalized to zero hour (substrate use), 9 hr [3]: 0.65; 590 nm absorbance normalized to zero hour (substrate use), 10 hr [3]: 0.75; 590 nm absorbance normalized to zero hour (substrate use), 11 hr [3]: 0.61 |
| OCc1ccccc1O[C@@H]1O[C@H](CO)[C@@H](O)[C@H](O)[C@H]1O [Salicin] | 1.17 | 0.93 | 0.96 | 0.83 | 0.43 | 0.67 | 0.66 | 0.62 | 0.62 | 1.17 | 0.78 | 0.69 |  |  |  |  |  |  |  |  | Substrate use, 590 nm absorbance normalized to zero hour, 1 hr [5]: 0.77; Substrate use, 590 nm absorbance normalized to zero hour, 5 hr [5]: 1.64; Substrate use, 590 nm absorbance normalized to zero hour, 7 hr [5]: 1.87; 590 nm absorbance normalized to zero hour (substrate use), 1 hr [4]: 0.77; 590 nm absorbance normalized to zero hour (substrate use), 2 hr [4]: 1.06; 590 nm absorbance normalized to zero hour (substrate use), 3 hr [4]: 1.26; 590 nm absorbance normalized to zero hour (substrate use), 4 hr [4]: 1.36; 590 nm absorbance normalized to zero hour (substrate use), 6 hr [4]: 1.76; 590 nm absorbance normalized to zero hour (substrate use), 8 hr [4]: 2.01; 590 nm absorbance normalized to zero hour (substrate use), 9 hr [4]: 2.26; 590 nm absorbance normalized to zero hour (substrate use), 10 hr [4]: 2.38; 590 nm absorbance normalized to zero hour (substrate use), 11 hr [4]: 2.62 |
